The first assay relates to SD rats (type 2 diabetes model). In words: model for rat urine glucose excretion (glucose-oxidase method). Type of assay: in vivo. As to conditions: comparison in words, rat urine glucose excretion model, 6 mg/kg. The method, then: The health SD rats are injected intraperitoneally with multiple low doses of streptozotocin for modeling (type 2 diabetes model) after feeding with high-fat and high-sucrose diet, and the content of blood glucose is measured before and after modeling. After the modeling successful, the rats for modeling are randomly divided (8 rats/group) into one blank group (administering the same volume of 0.5% CMC sodium solution) and several groups for compounds to be tested (6 mg/kg) according to the content of 24-hour urine glucose and the body weight. Rats in each group are fasted for 16 hours before experiment. The experimental rats are administered intragastrically with glucose (2 g/kg) at 0.5 h after intragastrical administration with compounds to be tested. The urine is collected at the time-period of 0-12 h after administration, and the urine glucose values are measured at each time-period by glucose-oxidase method.
The inhibiting activity of the cocrystal of I-D1-6 and L-proline on SGLT2 is measured by the model for rat urine glucose excretion.
The health SD rats are injected intraperitoneally with multiple low doses of streptozotocin for modeling (type 2 diabetes model) after feeding with high-fat and high-sucrose diet for one month, and the content of blood glucose is measured before and after modeling. After the modeling successful, the rats for modeling are randomly divided (8 rats/group) into one blank group (administering the same volume of 0.5% CMC sodium solution) and groups of tested compound (6 mg/kg) according to the content of 24-hour urine glucose and the body weight. Rats in each group are fasted for 16 hours before experiment. The experimental rats are administered intragastrically with the glucose (2 g/kg) at 0.5 h after intragastrical administration with the cocrystal of I-D1-6 and L-proline prepared in Example 138. The urine is collected at the time-period of 0-12 h after administration, and the urine glucose values are measured at each time-period by glucose-oxidase method.
As for `CCOc1ccc(Cc2cc([C@@H]3C[C@@H](O)[C@H](O)[C@@H](CO)O3)ccc2Cl)cc1` [I-D1-2, (1S)-1-[4-chloro-3-(4-ethoxybenzyl)phenyl]-1,2-dideoxy-D-glucose], the “urine glucose excretion effect (in words)” value is on record as “stronger urine glucose excretion effect”.

As for `CCOc1ccc(Cc2cc([C@@H]3O[C@H](CO)[C@@H](O)C[C@H]3O)ccc2Cl)cc1` [I-D1-3, (1S)-1-[4-chloro-3-(4-ethoxybenzyl)phenyl]-1,3-dideoxy-D-glucose], the “urine glucose excretion effect (in words)” value is recorded as “stronger urine glucose excretion effect”. Consider `CCOc1ccc(Cc2cc([C@@H]3O[C@H](CO)C[C@H](O)[C@H]3O)ccc2Cl)cc1` [I-D1-4, (1S)-1-[4-chloro-3-(4-ethoxybenzyl)phenyl]-1,4-dideoxy-D-glucose], for which the “urine glucose excretion effect (in words)” value is on record as “stronger urine glucose excretion effect”.

Staying with this assay, now noted: type 2 diabetes model SD rats, 6 mg/kg intragastrically, glucose 2 g/kg at 0.5 h, urine collected 0-12 h.
Take `CCc1ccc(Cc2cc(C3OC4(CC4)C(O)C(O)C3O)ccc2C)cc1` (stereo not drawn): the “Urine glucose excretion (mg/200 g body weight of the rat)” value is recorded as 609 mg/200 g body weight of the rat. On the same count and under the same terms, under `C=C1OC(c2ccc(Cl)c(Cc3ccc(OCC)cc3)c2)C(O)C(O)C1O` (stereo not drawn) stands 457 mg/200 g body weight of the rat; under `CCOc1ccc(Cc2cc(C3OC(OC)C(O)C(O)C3O)ccc2Cl)cc1` (stereo not drawn), 644 mg/200 g body weight of the rat; under `COc1ccc(Cc2cc(C3OC(C)C(O)C(O)C3O)ccc2C(F)(F)F)c(F)c1F` (stereo not drawn), 622 mg/200 g body weight of the rat. Still for that read-out and setting: under `CCOc1ccc(Cc2cc(C3OC(C)C(O)C(O)C3O)ccc2OC)cc1` (stereo not drawn) stands 688 mg/200 g body weight of the rat; under `COc1ccc(Cc2cc(C(C)C)cc(C3OC(C)C(O)C(O)C3O)c2)c(F)c1` (stereo not drawn), 523 mg/200 g body weight of the rat; under `C#Cc1ccc(Cc2cc(C3OC(C)C(O)C(O)C3O)ccc2Cl)cc1` (stereo not drawn), 671 mg/200 g body weight of the rat. Same read-out and setting: as for `CCc1ccc(Cc2cc(C3OC(C)C(O)C(O)C3O)ccc2C)cc1` (stereo not drawn), the figure is 613 mg/200 g body weight of the rat; as for `COc1ccc(Cc2cc(C3OC(CO)CC(O)C3O)ccc2Cl)cc1` (stereo not drawn), 310 mg/200 g body weight of the rat; as for `C#Cc1ccc(Cc2cc(C3OC(CO)CC(O)C3O)ccc2OC)cc1` (stereo not drawn), 328 mg/200 g body weight of the rat. For the compound `CCc1ccc(Cc2cc(C3OC(CO)C(O)CC3O)ccc2C)cc1` (stereo not drawn), the “Urine glucose excretion (mg/200 g body weight of the rat)” value is 230 mg/200 g body weight of the rat. On the same count and under the same terms, as for `CCOc1ccc(Cc2cc(C3OC(C)(C)C(O)C(O)C3O)ccc2Cl)cc1` (stereo not drawn), the figure is 470 mg/200 g body weight of the rat; as for `C=C1OC(c2ccc(Cl)c(Cc3ccc(OC)cc3)c2)C(O)C(O)C1O` (stereo not drawn), 410 mg/200 g body weight of the rat; as for `CCCCOc1ccc(Cc2cc(C3OC(C)C(O)C(O)C3O)ccc2Cl)cc1` (stereo not drawn), 721 mg/200 g body weight of the rat. Still for that read-out and setting: as for `COc1ccc(Cc2cc(C)cc(C3OC(C)C(O)C(O)C3O)c2)cc1F` (stereo not drawn), the figure is 539 mg/200 g body weight of the rat. For the compound `CCc1ccc(Cc2cc(C3OC(C)C(O)C(O)C3O)ccc2OC)cc1` (stereo not drawn), the “Urine glucose excretion (mg/200 g body weight of the rat)” value is recorded as 439 mg/200 g body weight of the rat. The same measure, in the same setting: as for `COc1ccc(Cc2cc(C3OC(CO)CC(O)C3O)ccc2Cl)c(F)c1` (stereo not drawn), the figure is 288 mg/200 g body weight of the rat; as for `C#Cc1ccc(Cc2cc(C3OC(CO)CC(O)C3O)ccc2Cl)cc1` (stereo not drawn), 213 mg/200 g body weight of the rat; as for `CCc1ccc(Cc2cc(C3CC(O)C(O)C(CO)O3)ccc2C)cc1` (stereo not drawn), 378 mg/200 g body weight of the rat. On the same count and under the same terms, under `CCc1ccc(Cc2cc(C3OC(CO)C(O)CC3O)ccc2Cl)cc1` (stereo not drawn) stands 198 mg/200 g body weight of the rat; under `COc1ccc(Cc2cc(C3OC(CO)C(O)CC3O)ccc2Cl)cc1` (stereo not drawn), 235 mg/200 g body weight of the rat. Consider `Cc1ccc(C2OC(C)C(O)C(O)C2O)cc1Cc1ccc(OC2CCOC2)cc1` (stereo not drawn), for which the “Urine glucose excretion (mg/200 g body weight of the rat)” value is recorded as 611 mg/200 g body weight of the rat. Same read-out and setting: as for `CCc1ccc(Cc2cc(C3CC(O)C(O)C(CO)O3)ccc2Cl)cc1` (stereo not drawn), the figure is 412 mg/200 g body weight of the rat; as for `COc1ccc(Cc2cc(C3CC(O)C(O)C(CO)O3)ccc2Cl)cc1` (stereo not drawn), 426 mg/200 g body weight of the rat; as for `CCOc1ccc(Cc2cc(C3OC(CO)C(O)C(O)C3O)ccc2Cl)cc1` (stereo not drawn) [drawing 194], 743 mg/200 g body weight of the rat.

For the compound `OCC1OC(c2ccc(F)c(Cc3cc4ccccc4s3)c2)C(O)C(O)C1O` (stereo not drawn) [drawing 195], the “Urine glucose excretion (mg/200 g body weight of the rat)” value is reported as 621 mg/200 g body weight of the rat. Same read-out and setting: as for `Cc1ccc(C2OC(CO)C(O)C(O)C2O)cc1Cc1ccc(-c2ccc(F)cc2)s1` (stereo not drawn) [drawing 196], the figure is 655 mg/200 g body weight of the rat. Regarding `OCC1OC(c2ccc(Cl)c(Cc3ccc(O[C@H]4CCOC4)cc3)c2)C(O)C(O)C1O` (stereo partly drawn) [drawing 197], the “Urine glucose excretion (mg/200 g body weight of the rat)” value was 643 mg/200 g body weight of the rat. As for `CCc1ccc(Cc2c(Cl)ccc3c2COC32OC(CO)C(O)C(O)C2O)cc1` (stereo not drawn) [drawing 198], the “Urine glucose excretion (mg/200 g body weight of the rat)” value is listed as 587 mg/200 g body weight of the rat. Still for that read-out and setting: under `CCOc1ccc(Cc2cc([C@]34OC[C@](CO)(O3)[C@@H](O)[C@H](O)[C@H]4O)ccc2Cl)cc1` [drawing 199] stands 455 mg/200 g body weight of the rat; under `CCOc1ccc(Cc2cc(C3SC(CO)C(O)C(O)C3O)c(OC)cc2C)cc1` (stereo not drawn) [drawing 211], 625 mg/200 g body weight of the rat; under `COc1ccc(Cc2cc(C3OC(C)C(O)C(O)C3O)ccc2Cl)cc1` (stereo not drawn) [drawing 213], 736 mg/200 g body weight of the rat. Still for that read-out and setting: as for `CCOc1ccc(Cc2cc(C3OC(C)C(O)C(O)C3O)ccc2C)cc1` (stereo not drawn) [drawing 216], the figure is 700 mg/200 g body weight of the rat; as for `CCCOc1ccc(Cc2cc(C3OC(C)C(O)C(O)C3O)ccc2Cl)cc1` (stereo not drawn) [drawing 217], 712 mg/200 g body weight of the rat; as for `CCOc1ccc(Cc2cc(C3OC(C)C(O)C(O)C3O)ccc2Cl)cc1` (stereo not drawn) [drawing 219], 833 mg/200 g body weight of the rat. With `CCOc1ccc(Cc2cc(C3OC(CO)CC(O)C3O)ccc2Cl)cc1` (stereo not drawn) [drawing 226], the “Urine glucose excretion (mg/200 g body weight of the rat)” value was 880 mg/200 g body weight of the rat. For `CCOc1ccc(Cc2cc(C3CC(O)C(O)C(CO)O3)ccc2Cl)cc1` (stereo not drawn) [drawing 227], the “Urine glucose excretion (mg/200 g body weight of the rat)” value is recorded as 811 mg/200 g body weight of the rat. On the same count and under the same terms, as for `Cc1ccc(C2OC(CO)CC(O)C2O)cc1Cc1ccc(-c2ccc(F)cc2)s1` (stereo not drawn) [drawing 228], the figure is 801 mg/200 g body weight of the rat; as for `Cc1ccc(C2CC(O)C(O)C(CO)O2)cc1Cc1ccc(-c2ccc(F)cc2)s1` (stereo not drawn) [drawing 229], 698 mg/200 g body weight of the rat. Same read-out and setting: under `CC1OC(c2ccc(F)c(Cc3cc4ccccc4s3)c2)C(O)C(O)C1O` (stereo not drawn) [drawing 230] stands 749 mg/200 g body weight of the rat; under `OCC1OC(c2ccc(Cl)c(Cc3ccc(O[C@H]4CCOC4)cc3)c2)C(O)CC1O` (stereo partly drawn) [drawing 231], 721 mg/200 g body weight of the rat; under `CC1OC(c2ccc(Cl)c(Cc3ccc(O[C@H]4CCOC4)cc3)c2)C(O)C(O)C1O` (stereo partly drawn) [drawing 233], 748 mg/200 g body weight of the rat. Still for that read-out and setting: under `OCC1OC(c2ccc(Cl)c(Cc3ccc(O[C@H]4CCOC4)cc3)c2)CC(O)C1O` (stereo partly drawn) [drawing 234] stands 744 mg/200 g body weight of the rat; under `CCOc1ccc(Cc2cc(C3OC(CO)C(O)CC3O)ccc2Cl)cc1` (stereo not drawn) [drawing 237], 828 mg/200 g body weight of the rat. As to `Cc1ccc(C2OC(C)C(O)C(O)C2O)cc1Cc1ccc(-c2ccc(F)cc2)s1` (stereo not drawn) [drawing 238], the “Urine glucose excretion (mg/200 g body weight of the rat)” value is reported as 723 mg/200 g body weight of the rat. With `Cc1ccc(C2OC(CO)C(O)CC2O)cc1Cc1ccc(-c2ccc(F)cc2)s1` (stereo not drawn) [drawing 239], the “Urine glucose excretion (mg/200 g body weight of the rat)” value is 772 mg/200 g body weight of the rat. The same measure, in the same setting: under `OCC1OC(c2ccc(F)c(Cc3cc4ccccc4s3)c2)C(O)CC1O` (stereo not drawn) [drawing 240] stands 656 mg/200 g body weight of the rat; under `OCC1CC(O)C(O)C(c2ccc(F)c(Cc3cc4ccccc4s3)c2)O1` (stereo not drawn) [drawing 241], 689 mg/200 g body weight of the rat.

Source of the values: US9505734B2, “Phenyl C-glucoside derivative containing deoxyglucose structure, preparation method and use thereof” (Tianjin Institute of Pharmaceutical Research, priority 2012, dated 2016).
